Tests used:
Lewis lung-OVA tumors = experiment: Lewis lung-OVA primary cure and secondary challenge repeated in Foxnl^nu mice; assay type: in vivo; conditions: PEP005-mediated cure of primary tumors
B16-OVA tumors = experiment: PEP005-mediated cure of primaries plus DC therapy, growth of secondary tumors, s.c. B16-OVA model; assay type: in vivo, C57BL/6 mice; conditions: Log rank p<0.001 (PEP005) and =0.002 (DC)
Experimental: FIGS. 13A to C are graphical representations showing synergistic effects between PEP005-mediated cure of primaries and DC therapy on the growth of secondary tumors and on CD8^+ T-cell induction. (A) On d−3 C57BL/6 mice where inoculated with 2×10^6 B16-OVA cells on the right flank (primary tumor) and 2×10^4 B16-OVA cells on the left flank (secondary tumor). On d0 and d1 the primary B16-OVA tumors, which has reach 30.4 mm^2+SD6 were cured with i.t. injections of 25 μg of PEP005 formulated in PEG400. On d4 and d11 mice received DC therapy using DC2.4 cells pulsed with SVYDFFVWL [SEQ ID NO:1], KVPRNQDWL [SEQ ID NO:4] and SIINFEKL [SEQ ID NO:2] peptides, and ovalbumin (n=12, PEP005+DC). […] Animal groups were established and treated as in (A) except that on d12 mice were sacrificed and splenocytes analyzed in an ex vivo ELISPOT assay for responses to SVYDFFVWL [SEQ ID NO:1], KVPRNQDWL [SEQ ID NO:4] and SIINFEKL [SEQ ID NO:2] […]
To determine whether the immunostimulatory activity of PEP005-mediated cure of primary tumors would synergize with DC therapy to reduce growth of secondaries, four groups of C57BL/6 mice were established using the s.c. B16-OVA model. […] The growth of secondary tumors was monitored over time.

[1] = tested on: CT26 colon carcinoma cells; experiment: PEP005-mediated cure of primaries plus peptide vaccine, CT26 colon carcinoma model; assay type: in vivo, Balb/c mice; conditions: Log rank p=0.011 (PEP005) and =0.013 (Vaccine)
Experimental: FIG. 14 is a graphical representation combining PEP005-mediated cure of primaries and cancer vaccination in the CT26 colon carcinoma model. (A) on d−3 […] mice were inoculated with 10^5 CT26 cells on the left flank (primary tumor) and 5×10^3 CT26 cells on the right flank (secondary tumor). On dO the primary CT26 tumors, which has reached 16.8+SD 3.2 mm^2 were cured with i.t. injections of 25 μg of PEP005 formulated in PEG400. On d3 and d10 mice received peptide vaccine containing the SPSYVYHQF [SEQ ID NO:5] epitope (n=9, PEP005+Vaccine). […] A third group was inoculated with secondary tumors only and received the vaccine (n=11, Vaccine), and the control group was given only secondary tumors and received no treatment (n=12, Controls). Animals were culled when the secondary tumors reached 100 mm^2.
CT26 colon carcinoma cells [CRL-2638] (Ali et al, 2002 supra) were grown s.c. in 6-10 week old female Balb/c mice.
The cancer vaccine comprised the gp70 A-1 peptide epitope SPSYVYHQF [SEQ ID NO:5] […]
To determine whether the effects seen in the B16 models could be repeated in a different tumor model and using a different cancer vaccine, four groups of Balb/c mice were established using the CT26 colon carcinoma model (Ali et al, J Immunol 168:3512-3519, 2002). […] The growth of secondary tumors was monitored as above.

C/C=C(/C)C(=O)O[C@H]1C(C)=C[C@]23C(=O)[C@@H](C=C(CO)[C@@H](O)[C@]12O)[C@H]1[C@@H](C[C@H]3C)C1(C)C [PEP005, ingenol-3-angelate]
protection against secondary challenge (Lewis lung-OVA tumors): no protective effect
growth of secondaries vs no treatment controls (B16-OVA tumors): significantly reduced the growth of secondaries
growth of secondaries vs no treatment controls [1]: significantly reduced the growth of secondaries

Reference: US8106092B2, “Treatment of solid cancers” (priority 2004, dated 2012)
